This note sets out measurements from patent US20260248763A1 (BIO GENUINE (SHANGHAI) BIOTECH CO., LTD, priority 2023, published 2026).

This test addresses T1, OTR (Homo sapiens, UniProt P30559).
T1 construct: expressed in transfected cells; host or cells: OTR/HEK293 stably transfected cell line
T1 sequence (P30559 1-389): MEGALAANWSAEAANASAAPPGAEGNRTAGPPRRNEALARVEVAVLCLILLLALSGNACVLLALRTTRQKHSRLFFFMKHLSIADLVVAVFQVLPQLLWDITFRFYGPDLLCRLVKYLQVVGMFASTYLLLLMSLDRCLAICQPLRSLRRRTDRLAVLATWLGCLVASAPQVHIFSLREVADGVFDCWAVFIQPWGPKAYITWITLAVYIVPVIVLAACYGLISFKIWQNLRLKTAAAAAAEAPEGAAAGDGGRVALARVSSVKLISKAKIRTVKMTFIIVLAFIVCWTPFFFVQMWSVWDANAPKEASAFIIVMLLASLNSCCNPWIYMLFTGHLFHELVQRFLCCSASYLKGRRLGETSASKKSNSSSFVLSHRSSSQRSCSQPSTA
The test can be described thus: Ca2+ mobilization in cells stably expressing OTR (FLIPR, antagonist mode). The format is cell-based. To be noted: OTR/HEK293 stably transfected cell line. The source says: Test Example 1. Determination of the Effect of the Compound of the Present Disclosure on Ca^2+ Mobilization in Cells Stably Expressing OTR
To measure the antagonistic effect of the compound of the present disclosure on OTR activity expressed in the OTR/HEK293 stably transfected cell line.
• DMEM medium (Invitrogen, 11965) • F12 medium (Invitrogen, 11765) • Fetal bovine serum (Excell, FSP500) • Geneticin (Invitrogen, 10131) • Penicillin/Streptomycin (Invitrogen, SV30010) • Fluo-4 Direct kit (Invitrogen, F10471) • 384-well cell plate (Greiner, 781090) • 384-well compound plate (Greiner, 781280)
• FLIPR instrument (Molecular Device) • EHCO instrument (Labcyte) • Cell counter (Beckman, Vi-cell XR)
The cultured cells were washed twice with pre-heated DPBS and digested with appropriate amount of trypsin at 37° C. for 1 minute, and then appropriate amount of culture medium was added to terminate digestion. The cells were centrifuged at 1000 rpm for 5 minutes. The supernatant was gently discarded without disturbing the cell pellet at the bottom. The cells were resuspended in culture medium and 1 mL was taken out for cell counting and viability assessment using Vi-CELL™. The cells were diluted to 1×10^6 cells/mL (20,000 cells/20 μL) with culture medium, seeded into a 384-well cell plate and incubated at 37° C. with 5% CO2 for 16-20 h.
Formulation of 250 mM Probenecid solution: according to the kit instructions, 1 mL of FLIPR buffer salt solution was added to 77 mg of probenecid, prepared fresh just before use. Formulation of Fluo-4 Direct™ (2×, 8 μM) loading buffer: according to the kit instructions, the required amount of Fluo-4 Direct™ was taken out and thawed in advance, 10 mL of FLIPR buffer salt solution and 0.2 mL of 250 mM Probenecid solution were added to each tube, and the mixture was vortexed in the dark for >5 minutes, prepared fresh just before use.
Preparation of agonist reference compound plate: the agonist was diluted 3-fold in 10 points using ECHO, and 750 nL was transferred to the corresponding compound plate using ECHO.
Preparation of reference and test compound plates: the test compound was diluted 3-fold in 10 points with ECHO, and 900 nL was transferred to the corresponding compound plate; the reference compound was diluted 3-fold in 10 points with assay buffer salt solution, and 30 μL was transferred to the compound plate.
30 μL of assay buffer salt solution was added to the corresponding compound plate, and the mixture was centrifuged at 1000 rpm for 1 minute.
The cell plate prepared the day before was taken out of the incubator, and 20 μL of 2×Fluo-4 Direct™ buffer was added to each well, with a total volume of 40 μL.
The plate was incubated in an incubator at 37° C. with 5% CO2 for 50 minutes, and then placed at room temperature for 10 minutes.
The compound plate, cell plate, and pipette tips were placed into the instrument.
For the agonist reference compound plate: the FLIPR instrument software was run, 10 μL of the pre-determined concentration of agonist reference compound was added to the cell plate following the preset protocol, and the fluorescence signal was read. After reading, the data were exported to calculate the EC80 for each cell line, and the agonist at 6×EC80 concentration was prepared.
For the compound plate: the FLIPR instrument software was run, 10 μL of the pre-determined concentration of test compound and the reference compound were added to the cell plate following the preset protocol, and the fluorescence signal was read. 10 μL of the reference compound agonist at 6×EC80 concentration was added to the cell plate, and the fluorescence signal was read. For antagonist detection of the compound, the data were exported using the “Max-Min” and “Read 1 to Maximum allowed” methods in the software, and the data were fitted using Prism.
(In general: Calcium assays in cells follow changes in intracellular calcium, usually with a dye or a luminescent sensor.)
`CO/N=C1/C[C@@H](CO)N(C(=O)c2ccc(-c3cccc(C#N)c3C)c(C3(O)COC3)c2)C1` [Example A0183, 3-(4-[(2S, 4Z)-2-(Hydroxymethyl)-4-(methoxyimino)pyrrolidine-1-carbonyl]-2-(3-hydroxyoxetan-3-yl)phenyl)-2-methylbenzonitrile] showed an IC50 of 1480 nM.

In the case of `CO/N=C1/C[C@@H](CO)N(C(=O)c2ccc(-c3cccc(C#N)c3C)c(OCC3CC3)n2)C1` [Example A0188, (S, Z)-3-(2-(Cyclopropylmethoxy)-6-(2-(hydroxymethyl)-4-(methoxyimino)pyrrolidine-1-carbonyl)pyridin-3-yl)-2-methylbenzonitrile], the IC50 came out at 43.9 nM.

`CO/N=C1/C[C@@H](CO)N(C(=O)c2ccc(-c3cccc(C#N)c3C)c3ncnn23)C1` [Example A0190, (S, Z)-3-(5-(2-(Hydroxymethyl)-4-(methoxyimino)pyrrolidine-1-carbonyl)-[1,2,4]triazolo[1,5-a]pyridin-8-yl)-2-methylbenzonitrile] gave an IC50 of 1510 nM.

`COCCNc1nc(C(=O)N2C/C(=N\OC)C[C@H]2CO)ccc1-c1cccc(C#N)c1C` [Example A0197, (S, Z)-3-(6-(2-(Hydroxymethyl)-4-(methoxyimino)pyrrolidine-1-carbonyl)-2-((2-methoxyethyl)amino)pyridin-3-yl)-2-methylbenzonitrile] showed an IC50 of 403 nM.

As for `CO/N=C1/C[C@@H](CO)N(C(=O)c2ccc(-c3cccc(C#N)c3C)c(N3CCOCC3)n2)C1` [Example A0198, (S, Z)-3-(6-(2-(Hydroxymethyl)-4-(methoxyimino)pyrrolidine-1-carbonyl)-2-morpholinopyridin-3-yl)-2-methylbenzonitrile], the IC50 is 967 nM.

`CO/N=C1/C[C@@H](CO)N(C(=O)c2ccc(-c3cccc(C#N)c3C(F)F)cc2)C1` [Example A0204, 2-(Difluoromethyl)-3-(4-[(2S, 4Z)-2-(hydroxymethyl)-4-(methoxyimino)pyrrolidine-1-carbonyl]phenyl)benzonitrile] came in with an IC50 of 156 nM.

On to `CO/N=C1/C[C@@H](CO)N(C(=O)c2ccc(-c3cccc(C#N)c3C)s2)C1` [Example A0212, 3-(5-[(2S, 4Z)-2-(Hydroxymethyl)-4-(methoxyimino)pyrrolidine-1-carbonyl]thien-2-yl)-2-methylbenzonitrile], for which the IC50 was determined as 384 nM.

Turning to `CO/N=C1/C[C@@H](CO)N(C(=O)c2cc(OC)c(-c3cccc(C#N)c3C)cn2)C1` [Example A0216, 3-(6-[(2S, 4Z)-2-(Hydroxymethyl)-4-(methoxyimino)pyrrolidine-1-carbonyl]-4-methoxypyridin-3-yl)-2-methylbenzonitrile], half-maximal inhibition (IC50) required 198 nM.

As to `CO/N=C1\C[C@@H](CO)N(C(=O)c2ccc(-c3cccc(C#N)c3C)c(OC)n2)C1` [Example A0222, 3-(6-[(2S, 4E)-2-(Hydroxymethyl)-4-(methoxyimino)pyrrolidine-1-carbonyl]-2-methoxypyridin-3-yl)-2-methylbenzonitrile], the IC50 amounted to 112 nM.

In turn, `CO/N=C1/CC[C@@H](CO)N(C(=O)c2ccc(-c3cccc(C#N)c3C)cc2)C1` [Example A0225, (S, Z)-4′-(2-(Hydroxymethyl)-5-(methoxyimino)piperidine-1-carbonyl)-2-methyl-[1,1′-biphenyl]-3-carbonitrile] displayed an IC50 of 483 nM.

Turning to `CO/N=C1\CCN(C(=O)c2ccc(-c3cccc(C#N)c3C)cc2)[C@H](CO)C1` [Example A0226, (S,E)-4′-(2-(Hydroxymethyl)-4-(methoxyimino)piperidine-1-carbonyl)-2-methyl-[1,1′-biphenyl]-3-carbonitrile], half-maximal inhibition (IC50) required 1050 nM.

Regarding `CNC(=O)[C@@H]1C/C(=N/OC)CN1C(=O)c1ccc(-c2cccc(C#N)c2C)cc1` [Example A0228, (S, Z)-1-(3′-Cyano-2′-methyl-[1,1′-biphenyl]-4-carbonyl)-4-(methoxyimino)-N-methylpyrrolidine-2-carboxamide], 432 nM corresponded to half-maximal inhibition (IC50).

In turn, `CNC(=O)[C@@H]1C/C(=N\OC)CN1C(=O)c1ccc(-c2cccc(C#N)c2C)cc1` [Example A0232, (S, E)-1-(3′-Cyano-2′-methyl-[1,1′-biphenyl]-4-carbonyl)-4-(methoxyimino)-N-methylpyrrolidine-2-carboxamide] yielded an IC50 of 394 nM.

`CO/N=C1\CC[C@@H](CO)N(C(=O)c2ccc(-c3cccc(C#N)c3C)cc2)C1` [Example A0234, (S, E)-4′-(2-(Hydroxymethyl)-5-(methoxyimino)piperidine-1-carbonyl)-2-methyl-[1,1′-biphenyl]-3-carbonitrile] showed an IC50 of 242 nM.

Turning to `CO/N=C1\C[C@@H](CO)N(C(=O)c2ccc(-c3cccc(C#N)c3C)cc2C)C1` [Example A0244, 3-(4-[(2S,4E)-2-(Hydroxymethyl)-4-(methoxyimino)pyrrolidine-1-carbonyl]-3-methylphenyl)-2-methylbenzonitrile], the IC50 was found to be 42.8 nM.

As to `CO/N=C1\C[C@@H](CO)N(C(=O)c2ccc(-c3cccc(C#N)c3C)cc2OC)C1` [Example A0245], the IC50 was found to be 58.1 nM.

`CO/N=C1\C[C@@H](CO)N(C(=O)c2ccc(-c3cccc(C#N)c3C)c(OC)c2)C1` [Example A0248, (S,E)-4′-(2-(Hydroxymethyl)-4-(methoxyimino)pyrrolidine-1-carbonyl)-2′-methoxy-2-methyl-[1,1′-biphenyl]-3-carbonitrile] returned an IC50 of 57.8 nM.

`CO/N=C1/CCN(C(=O)c2ccc(-c3cccc(C#N)c3C)cc2)[C@H](CO)C1` [Example A0249, (S,Z)-4′-(2-(Hydroxymethyl)-4-(methoxyimino)piperidine-1-carbonyl)-2-methyl-[1,1′-biphenyl]-3-carbonitrile] displayed an IC50 of 3060 nM.

In turn, `CO/N=C1/C[C@@H](CO)N(C(=O)c2cnc(-c3cccc(C#N)c3C)cn2)C1` [Example A0251, (S,Z)-3-(5-(2-(Hydroxymethyl)-4-(methoxyimino)pyrrolidine-1-carbonyl)pyrazin-2-yl)-2-methylbenzonitrile] registered a 50% inhibitory concentration (IC50) of 363 nM.

Take `CO/N=C1\C[C@@H](CNC(C)=O)N(C(=O)c2ccc(-c3ccccc3C)cc2)C1` [Example C0003, (S, E)-N-((4-(Methoxyimino)-1-(2′-methyl-[1,1′-biphenyl]-4-carbonyl)pyrrolidin-2-yl)methyl)acetamide]: the IC50 stood at 2330 nM.

`CO/N=C1\C[C@@H](CNC(=O)OC)N(C(=O)c2ccc(-c3ccccc3C)cc2)C1` [Example C0004, Methyl (S, E)-((4-(methoxyimino)-1-(2′-methyl-[1,1′-biphenyl]-4-carbonyl)pyrrolidin-2-yl)methyl)carbamate] registered an IC50 of 628 nM.

`CO/N=C1\C[C@@H](CNC(=O)CO)N(C(=O)c2ccc(-c3ccccc3C)cc2)C1` [Example C0005, (S, E)-2-Hydroxy-N-((4-(methoxyimino)-1-(2′-methyl-[1,1′-biphenyl]-4-carbonyl)pyrrolidin-2-yl)methyl)acetamide] registered an IC50 of 1790 nM.

The molecule `CO/N=C1/C[C@@H](CNC(=O)OC)N(C(=O)c2ccc(-c3ccccc3C)cc2)C1` [Example C0007, Methyl (S, Z)-((4-(methoxyimino)-1-(2′-methyl-[1,1′-biphenyl]-4-carbonyl)pyrrolidin-2-yl)methyl)carbamate] came in with an IC50 of 534 nM.

Broadly, the IC50 is the concentration that gives 50% inhibition. A lower IC50 goes with higher potency.
